Experimental data as given in US9464049B2, “Indole-carboxamides” (Hoffmann-La Roche Inc., priority 2013, dated 2016).

Assays:
[1] = test system: human embryonic stem cell derived neural stem cells (NSCs); experiment: Neural stem cell proliferation assay (neurogenesis assay, ATP levels by CellTiterGlo); type: cell-based; conditions: compound concentration at which 150% activity of control (100%) is reached, NSC proliferation by ATP (CellTiterGlo) after 4 days incubation, dose response 8 μM to 8 nM
Description: Neural Stem Cell Proliferation Assay
Neurogenic properties of small molecules are determined based on the proliferation of human embryonic stem cell derived neural stem cells (NSCs) which were derived via a dual smad inhibition as previously described (Chambers, S. M., et al., Highly efficient neural conversion of human ES and iPS cells by dual inhibition of SMAD signaling, Nature biotechnology, 2009. 27(3): p. 275-80.)
Compounds respond is measured by the increase in cells based on ATP levels (Promega:CellTiterGlo®) after an incubation period of 4 days.
NSCs are thawed and expanded over 3 passages. On the 14th day, NSCs are seeded in Polyornithin/Laminin coated 384 well plates at a cell density of 21,000 cells/cm^2 in a media volume of 38 μl.
4 hours after cell seeding, compound solutions are added at a volume of 2 μl. Stock solutions of the compounds (water, 5% DMSO) are diluted to obtain a dose response (11 points, dilution factor is 2), ranging from 8 μM to 8 nM. Controls are run to consistently determine the neurogenic properties of the cells: • Negative (neutral) control is cell culture Media (final DMSO concentration: 0.25%). • Positive controls are: • 1. cell culture Media+100 ng/ml FGF2 (final DMSO concentration: 0.1%) • 2. cell culture Media+20 ng/ml EGF (final DMSO concentration: 0.1%) • 3. cell culture Media+100 ng/ml Wnt3a (final DMSO concentration: 0.1%)
After 4 days incubation at 37° C., 5% CO2, the amount of ATP per well is quantified. The ATP concentration is proportional to the cell number. ATP is quantified by using the Promega CellTiterGlo® kit. The CellTiterGlo® reagents contain a cell lysis buffer, a thermo stable luciferase (UltraGlo™ recombinant luciferase), magnesium and luciferin. Luciferin reacts with ATP producing oxyluciferin, AMP and light. The luminescence signal is proportional to the ATP content.
The value of negative (neutral) control is determined for each assay plate by taking the average of 16 negative control wells. The neurogenic compound response is calculated for each compound as (compound/Negative Control)*100.
The values of EC150 from the dose response curve are determined for each test compound. The EC150 is the compound concentration at which 150% activity of control (100%) is reached.

[2] = Homo sapiens, Neural stem cell, 96 h

Row | Compound | EC (150% of control) [1] [µM] | EC (150% of control) [1, 2] [µM] | melting point [°C]
1 | 5-Cyano-7-3,4-difluorophenyl)-1H-indole-2-carboxamide [Example 33] | 0.056 | – | –
2 | Cc1c(C(N)=O)n(C)c2c(-c3ccc(Cl)cc3)cc(C#N)cc12 [Example 1, 7-(4-Chloro-phenyl)-5-cyano-1,3-dimethylindole-2-carboxamide] | – | 0.14 | 237
3 | Cn1c(C(N)=O)cc2cc(F)cc(-c3ccc(F)cc3)c21 [Example 2, 5-Fluoro-7-(4-fluoro-phenyl)-1-methylindole-2-carboxamide] | – | 1.4 | 156
4 | NC(=O)c1cc2cc(F)cc(-c3ccc(F)cc3)c2[nH]1 [Example 3, 5-Fluoro-7-(4-fluoro-phenyl)-1H-indole-2-carboxamide] | – | 0.18 | 162
5 | Cc1c(C(N)=O)n(C)c2c(-c3ccc(F)cc3)cc(C#N)cc12 [Example 4, 5-Cyano-7-(4-fluorophenyl)-1,3-dimethylindole-2-carboxamide] | – | 0.21 | 216
6 | Cc1c(C(N)=O)n(C)c2c(-c3ccc(F)c(F)c3)cc(C#N)cc12 [Example 5, 5-Cyano-7-(3,4-difluorophenyl)-1,3-dimethylindole-2-carboxamide] | – | 0.35 | 212
7 | Cc1c(C(N)=O)n(C)c2c(-c3ccc(C(F)(F)F)cc3)cc(C#N)cc12 [Example 6, 5-Cyano-1,3-dimethyl-7-[4-(trifluoromethyl)-phenyl]-indole-2-carboxamide] | – | 2.7 | 195
8 | Cc1c(C(N)=O)[nH]c2c(-c3ccc(F)c(F)c3)cc(C#N)cc12 [Example 7, 5-Cyano-7-(3,4-difluorophenyl)-3-methyl-1H-indole-2-carboxamide] | – | 0.3 | 222
9 | Cc1c(C(N)=O)[nH]c2c(-c3ccc(C(F)(F)F)cc3)cc(C#N)cc12 [Example 8, 5-Cyano-3-methyl-7-[4-(trifluoromethyl)phenyl]-1H-indole-2-carboxamide] | – | 0.4 | 243
10 | Cc1c(C(N)=O)[nH]c2c(-c3ccc(F)cc3)cc(C#N)cc12 [Example 9, 5-Cyano-7-(4-fluorophenyl)-3-methyl-1H-indole-2-carboxamide] | – | 0.22 | 268
11 | Cc1c(C(N)=O)[nH]c2c(-c3ccc(Cl)cc3)cc(C#N)cc12 [Example 10, 7-(4-Chlorophenyl)-5-cyano-3-methyl-1H-indole-2-carboxamide] | – | 0.21 | 291
12 | Cc1c(C(N)=O)[nH]c2c(-c3ccc(F)cc3)cc(Cl)cc12 [Example 11, 5-Chloro-7-(4-fluorophenyl)-3-methyl-1H-indole-2-carboxamide] | – | 0.22 | 173
13 | Cc1c(C(N)=O)[nH]c2c(-c3ccc(Cl)cc3)cc(Cl)cc12 [Example 12, 5-Chloro-7-(4-chlorophenyl)-3-methyl-1H-indole-2-carboxamide] | – | 0.31 | 252
14 | Cc1c(C(N)=O)n(C)c2c(-c3ccc(F)cc3)cc(Cl)cc12 [Example 13, 5-Chloro-7-(4-fluorophenyl)-1,3-dimethylindole-2-carboxamide] | – | 1.64 | 178
15 | Cc1c(C(N)=O)n(C)c2c(-c3ccc(Cl)cc3)cc(Cl)cc12 [Example 14, 5-Chloro-7-(4-chlorophenyl)-1,3-dimethylindole-2-carboxamide] | – | 0.84 | 195
16 | Cc1c(C(N)=O)[nH]c2c(-c3ccc(F)c(F)c3)cc(Cl)cc12 [Example 15, 5-Chloro-7-(3,4-difluorophenyl)-3-methyl-1H-indole-2-carboxamide] | – | 0.64 | 206
17 | Cc1c(C(N)=O)[nH]c2c(-c3ccc(C(F)(F)F)cc3)cc(Cl)cc12 [Example 16, 5-Chloro-3-methyl-7-[4-(trifluoromethyl)-phenyl]-1H-indole-2-carboxamide] | – | 0.75 | 184
18 | Cc1c(C(N)=O)n(C)c2c(-c3ccc(F)c(F)c3)cc(Cl)cc12 [Example 17, 5-Chloro-7-(3,4-difluorophenyl)-1,3-dimethylindole-2-carboxamide] | – | 3.3 | 196
19 | Cc1c(C(N)=O)n(C)c2c(-c3ccc(C(F)(F)F)cc3)cc(Cl)cc12 [Example 18, 5-Chloro-1,3-dimethyl-7-[4-(trifluoromethyl)phenyl]indole-2-carboxamide] | – | 2.8 | 206
20 | Cc1c(C(N)=O)[nH]c2c(-c3ccc(OC(F)(F)F)cc3)cc(C#N)cc12 [Example 19, 5-Cyano-3-methyl-7-[4-(trifluoromethoxy)-phenyl]-1H-indole-2-carboxamide] | – | 1.13 | 207
21 | Cc1c(C(N)=O)[nH]c2c(-c3ccc(C#N)cc3)cc(C#N)cc12 [Example 20, 5-Cyano-7-(4-cyanophenyl)-3-methyl-1H-indole-2-carboxamide] | – | 0.24 | 294
22 | Cc1c(C(N)=O)n(C)c2c(-c3ccc(OC(F)(F)F)cc3)cc(C#N)cc12 [Example 21, 5-Cyano-1,3-dimethyl-7-[4-(trifluoromethoxy)phenyl]indole-2-carboxamide] | – | 0.43 | 106
23 | Cc1c(C(N)=O)n(C)c2c(-c3ccc(C#N)cc3)cc(C#N)cc12 [Example 22, 5-Cyano-7-(4-cyanophenyl)-1,3-dimethylindole-2-carboxamide] | – | 0.6 | 226
24 | Cc1c(C(N)=O)[nH]c2c(-c3ccc(C#N)cc3)cc(Cl)cc12 [Example 23] | – | 0.28 | 267
25 | Cc1c(C(N)=O)[nH]c2c(-c3ccc(OC(F)(F)F)cc3)cc(Cl)cc12 [Example 24, 5-Chloro-3-methyl-7-[4-(trifluoromethoxy)phenyl]-1H-indole-2-carboxamide] | – | 1.32 | 149
26 | Cc1c(C(N)=O)[nH]c2c(-c3ccc(F)cc3F)cc(Cl)cc12 [Example 25, 5-Chloro-7-(2,4-difluorophenyl)-3-methyl-1H-indole-2-carboxamide] | – | 0.21 | 196
27 | Cc1c(C(N)=O)[nH]c2c(-c3ccc(Cl)cc3Cl)cc(Cl)cc12 [Example 26, 5-Chloro-7-(2,4-dichlorophenyl)-3-methyl-1H-indole-2-carboxamide] | – | 0.33 | 195
28 | Cc1c(C(N)=O)n(C)c2c(-c3ccc(OC(F)(F)F)cc3)cc(Cl)cc12 [Example 27, 5-Chloro-1,3-dimethyl-7-[4-(trifluoromethoxy)-phenyl]indole-2-carboxamide] | – | 3.67 | 181
29 | Cc1c(C(N)=O)n(C)c2c(-c3ccc(C#N)cc3)cc(Cl)cc12 [Example 28, 5-Chloro-7-(4-cyanophenyl)-1,3-dimethylindole-2-carboxamide] | – | 1.06 | 199
30 | Cc1c(C(N)=O)n(C)c2c(-c3ccc(F)cc3F)cc(Cl)cc12 [Example 29, 5-Chloro-7-(2,4-difluorophenyl)-1,3-dimethylindole-2-carboxamide] | – | 0.23 | 220
